In patent publication US5508419A, “Substituted triazoles as angiotensin II inhibitors” (Ortho Pharmaceutical Corporation, priority 1994, dated 1996):

Key:
[1] = biological target: T1, angiotensin II receptor (angiotensin II-induced vasoconstriction in in vitro aortic rings) (Oryctolagus cuniculus, UniProt P34976); assay: Inhibition of Angiotensin II Dose-Response in Rabbit Thoracic Aorta; format: cell-based, rabbit (New Zealand white); details: for Kb / pA2: rabbit thoracic aorta, negative logarithm of antagonist concentration causing 2-fold shift to the right of agonist potency; for Kb: read-out: pA2 (converted); for inhibition at 10 µM: read-out: % Inhib. @ 10 uM
T1 construct: thoracic aorta gently dissected free from the aortic root to the level of the diaphragm; from tissue; host or cells: rabbit (New Zealand white) thoracic aorta rings
T1 sequence (P34976 1-359): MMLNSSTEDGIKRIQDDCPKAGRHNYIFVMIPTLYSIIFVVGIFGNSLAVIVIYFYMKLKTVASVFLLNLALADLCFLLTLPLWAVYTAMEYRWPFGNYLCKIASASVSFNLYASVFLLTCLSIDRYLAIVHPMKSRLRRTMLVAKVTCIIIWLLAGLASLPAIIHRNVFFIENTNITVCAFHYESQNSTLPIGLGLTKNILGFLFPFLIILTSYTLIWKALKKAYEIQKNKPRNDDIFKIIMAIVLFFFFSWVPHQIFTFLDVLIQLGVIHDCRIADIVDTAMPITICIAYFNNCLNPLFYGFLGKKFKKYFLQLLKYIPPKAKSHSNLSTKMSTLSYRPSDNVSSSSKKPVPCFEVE
Text: Inhibition of Angiotensin II Dose-Response in Rabbit Thoracic Aorta
Purpose: To identify competitive receptor antagonists of an angiotensin II-activity, 1 activity i.e., angiotensin II-induced vasoconstriction in in vitro aortic rings.
Procedure: 1.8 to 2.3 kg New Zealand white rabbits are sacrificed with an intravenous sodium pentobarbital overdose and the thoracic aorta gently dissected free from the aortic root to the level of the diaphragm, into ice cold Krebs bicarbonate buffer. The aorta is gently freed of clots and adventitia and cleanly cut with a scalpel into 5 mm segments. Each dng is suspended from a Gould isotonic force transducer in a tissue bath containing 15 mL oxygenated Krebs bicarbonate buffer regulated at 37° C. Initial tension is adjusted to 4.0 g and equilibrated over three 20-min wash periods to achieve a baseline tension of 3.0 g. Graded angiotensin II doses are given cumulatively to achieve a maximal contraction. Three 20-min washes are pedormed to remove the initial angiotensin II effect. The test compound is then given at a screening concentration of 1.0×10^-5 M. After observing any effects of the test compound alone, the angiotensin II cumulative dose-response is then repeated in the presence of the test compound.
Analysis: Angiotensin II vasoconstdctor tension in grams is expressed as a percent of maximal contraction for the before and after test compound angiotensin II dose-responses. Angiotensin II ED50 and ED90 is determined from the angiotensin II dose-response curves generated before and after test compound.
Controls: Test compounds are dissolved in DMSO vehicle and DMSO vehicle alone is tested in two rings as a vehicle control in each screening experiment.
pA2 is the negative logarithm of the antagonist concentration that causes a 2-fold shift to the right (i.e. decrease) in the potency of the agonist or the negative logarithm of the antagonist concentration that cuts the potency of the agonist in half.

[2] = tested on: angiotensin II receptor; assay: Screening Potential Angiotensin II Receptor Antagonists in Salt-Depleted Normotensive Rats (blood pressure); format: in vivo, rat (Sprague-Dawley)
Procedure: Method; Male 350-450 g Sprague-Dawley rats are implanted with teflon microcannulae via the middle caudal artery under 20 mg/kg intravenous brevital anesthesia and permitted a 4-7 day surgical recovery period. Throughout recovery and testing animals are individually housed unrestrained in standard rat metabolism cages and receive continuous 0.5 ml/h intra-arterial 0.25N saline infusion through a spring-shielded swivelling tether connected to an infusion/blood pressure recording system to maintain arterial cannula patency. […] […] Three hours after the second furosemide dose, rats are given test compound uniformly suspended in 1% methylcellulose (n=3/dose level) or 1 mL 1% methylcellulose vehicle (n=3) orally by gavage and blood pressure is continuously recorded for 24 h using a Buxco computerized data recording system. Compound-induced changes in blood pressure are compared to concurrent vehicle control blood pressures in order to detect drug effect.
Interpretation: Prior to salt depletion, normotensive rats typically show a plasma renin activity (PRA, ng angiotensin I/mL plasma/h, RIA) of 0.7. After the salt-depletion protocol PRA values taken 3 h after the furosemide dose have risen to about 7.4.
Compounds that decrease blood pressure 10 or more mmHg (MAP) compared to concurrent control after oral dosing are considered active in this test. Maximum possible response is about -35 mmHg. […]

[3] = tested on: plasma renin activity; assay: Plasma renin activity (PRA, RIA) in salt-depleted rats; format: in vivo, rat (Sprague-Dawley); details: after DuP-753 treatment of salt-depleted rats, 0.7 before and about 7.4 after salt depletion

Structure (SMILES)	Kb [1] [nM]	inhibition at 10 µM [1] [%]	other results
CCCCc1nc(SCc2ccc(-c3ccccc3C(=O)O)cc2)nn1Cc1ccc(-c2ccccc2C(=O)O)cc1 [Compound 2, Disodium 5-Butyl-1,3-bis-[4-(2'-carboxyphenyl)benzyl]mercapto-1,2,4-triazole]	3.24	100	
CC(C)Cc1nc(SCc2ccc(-c3ccccc3C(=O)O)cc2)nn1Cc1ccc(-c2ccccc2C(=O)O)cc1 [Compound 4, Sodium 5-isobutyl-1,3-bis-[4-(2'-carboxyphenyl)benzyl]mercapto-1,2,4-triazole]	32.4	100	
CCCCCc1nc(SCc2ccc(-c3ccccc3C(=O)O)cc2)nn1Cc1ccc(-c2ccccc2C(=O)O)cc1 [Compound 6, 5-Pentyl-1,3-bis-[4-(2'-carboxyphenyl)benzyl]mercapto-1,2,4-triazole]		100	pA2 [1]: 8.39
CCCCCCc1nc(SCc2ccc(-c3ccccc3C(=O)OC)cc2)nn1Cc1ccc(-c2ccccc2C(=O)OC)cc1 [Compound 8, 5-Hexyl-1,3-bis-[4-(2'-carbomethoxyphenyl)benzyl]mercapto-1,2,4-triazole]	11	100	
CCCCCCCc1nc(SCc2ccc(-c3ccccc3C(=O)OC)cc2)nn1Cc1ccc(-c2ccccc2C(=O)OC)cc1 [Compound 9, 5-Heptyl-1,3-bis-[4-(2'-carbomethoxyphenyl)benzyl]mercapto-1,2,4-triazole]		2	
CCCCCCCc1nc(SCc2ccc(-c3ccccc3C(=O)O)cc2)nn1Cc1ccc(-c2ccccc2C(=O)O)cc1 [Compound 10, 5-Heptyl-1,3-bis-[4-(2'-carboxyphenyl)benzyl]mercapto-1,2,4-triazole]	186	97	
CCCCCc1nc(SCc2ccc(-c3ccccc3C#N)cc2)nn1Cc1ccc(-c2ccccc2C(=O)O)cc1 [Compound 12]		79	
CCCCCc1nc(SCc2ccc(-c3ccccc3C(=O)OC)cc2)nn1Cc1ccc(-c2ccccc2-c2nn[nH]n2)cc1 [Compound 16, 3-[4-(2'-Carbomethoxyphenyl)benzyl]mercapto-5-pentyl-1-[4-(2'-tetrazolophenyl)benzyl]-1,2,4-triazole hemihydrate]	10000		
CCCCCc1nc(SCc2ccc(-c3ccccc3C(=O)OC)cc2)n(Cc2ccc(-c3ccccc3C(=O)OC)cc2)n1 [Compound 21, 5-Pentyl-2,3-bis-[4-(2'-carbomethoxyphenyl)benzyl]mercapto-1,2,4-triazole]		4	
CCCCCc1nc(SCc2ccc(-c3ccccc3C(=O)O)cc2)n(Cc2ccc(-c3ccccc3C(=O)O)cc2)n1 [Compound 23, 5-Pentyl-2,3-bis-[4-(2'-carboxyphenyl)benzyl]mercapto-1,2,4-triazole]		100	pA2 [1]: 7.19
CCCCCCCc1nc(SCc2ccc(-c3ccccc3C(=O)OC)cc2)n(Cc2ccc(-c3ccccc3C(=O)OC)cc2)n1 [Compound 25, 5-Heptyl-2,3-bis-[4-(2'-carbomethoxyphenyl)benzyl]mercapto-1,2,4-triazole]		1	
CCCCCCCc1nc(SCc2ccc(-c3ccccc3C(=O)O)cc2)n(Cc2ccc(-c3ccccc3C(=O)O)cc2)n1 [Compound 26]		48	pA2 [1]: 5.88
CCCCCCCCc1nc(S(=O)(=O)Cc2ccc(-c3ccccc3C(=O)O)cc2)nn1Cc1ccc(-c2ccccc2C(=O)O)cc1 [Compound 38, 1-[(2'-Carboxyphenyl)benzyl]-3-[(2'-carboxyphenyl)benzylsulfonyl]-5-octyl-1,2,4-triazole hydrate]	813	87	
CCCCCCCc1nc(S(=O)(=O)Cc2ccc(-c3ccccc3C(=O)O)cc2)nn1Cc1ccc(-c2ccccc2C(=O)O)cc1 [Compound 39, 1-[(2'-Carboxyphenyl)benzyl]-3-[(2'-carboxyphenyl)benzylsulfonyl]-5-heptyl-1,2,4-triazole hydrate]	324	89	
CCCCCCc1nc(S(=O)(=O)Cc2ccc(-c3ccccc3C(=O)O)cc2)nn1Cc1ccc(-c2ccccc2C(=O)O)cc1 [Compound 40, 1-[(2'-Carboxyphenyl)benzyl]-3-[(2'-carboxyphenyl)benzylsulfonyl]-5-hexyl-1,2,4-triazole 0.5 hydrate]	8.91	100	
CCCCc1nc(Cl)c(CO)n1Cc1ccc(-c2ccccc2-c2nn[nH]n2)cc1 [DuP-753]			blood pressure change ([2]; normotensive rats that have not been salt-depleted): does not change; blood pressure decrease (mean arterial pressure, MAP) ([2]; salt-depleted rats (furosemide, low sodium diet), typical response): about 35 mmHg; plasma renin activity (PRA) [3]: about 41.4 ng angiotensin I/mL plasma/h
